Entries after “also recorded” stand apart in the source; their conditions may differ.

The values that follow come from US20080095863A1, “2-PYRROLIDONE DERIVATIVES FOR PRESERVATION OF OPHTHALMIC, OTIC AND NASAL COMPOSITIONS” (Alcon Manufacturing Ltd., priority 2006, published 2008).

For data set [1], the system named is S. aureus, P. aeruginosa, E. coli, C. albicans and A. niger. Briefly: Compliance with USP and/or Ph. Eur. preservative efficacy standards (Table 1). Particulars: for meeting European Pharmacopoeia 5.0 (Ph. Eur. B) standards as sole preservative: without any other preservative. The class given is cell-based. The procedure: (§1) Antimicrobial preservative effectiveness as set forth by the examples infra was determined using an organism challenge test according to the methods described in the United States Pharmacopoeia 24 (USP) for category 1A products, and in European Pharmacopoeia 5.0 (Ph. Eur.) for parenteral and ophthalmic preparations. […] The samples were then pulled at specified intervals to determine if the antimicrobial preservative system was capable of killing or inhibiting the propagation of organisms purposely introduced into the formulation. The rate or level of antimicrobial activity determines compliance with the USP and/or Ph. Eur. preservative efficacy standards for the cited categories of preparations.
(§2) Relative to fungi, the USP standards require that the compositions maintain stasis (i.e., no growth) relative to the population of the initial inoculum over the entire 28 day test period. A category 1A product is an injection, or other parenteral including emulsions, otic, sterile nasal products and ophthalmic products made with aqueous bases or vehicles.
(§3) The margin of error in calculating microorganism populations is generally accepted to be +/−0.5 logs. Accordingly, the term “stasis”, as utilized herein relative to the above-discussed USP standards, means that the initial population cannot increase by more than 0.5 log orders, relative to the initial population.
(§4) As cited by Table 1, the Ph. […] Regarding fungi, the Ph.

In data set [2] the test system is Escherichia coli ATCC 8739. Briefly: Antimicrobial preservative effectiveness organism challenge test (USP 24 / Ph. Eur. 5.0). It is filed as cell-based. The following applies: E. coli, 0.05 w/v % in Table 2 formulation, pH 7.5. Here is the method:
as §1, §2, §3, §4

In data set [3] the test system is Candida albicans ATCC 10231. Described as above. The class given is cell-based. Here is the method: as §1, §2, §3, §4
The test system of data set [4] is Staphylococcus aureus ATCC 6538. Described as above. It is filed as cell-based. The following applies: S. aureus, pH 7.5. Here is the method: as §1, §2, §3, §4
Data set [5] concerns Pseudomonas aeruginosa ATCC 9027. The description is as above. The following applies: P. aeruginosa, 0.05 w/v % in Table 2 formulation, pH 7.5. The class given is cell-based. The procedure:
as §1, §2, §3, §4

For data set [6], the system named is Aspergillus niger ATCC 16404. Described as above. The class given is cell-based. The following applies: A. niger, 7 days; 0.05 w/v % in Table 2 formulation, pH 7.5. Here is the method:
as §1, §2, §3, §4

The conditions of data set [7]: cited from earlier work.

As to `CCCCCCCCN1CCCC1=O` [N-Octyl-2-Pyrrolidone, N-octyl-2-pyrrolidone], the “kill of both gram-negative and gram-positive bacteria” value in data set [1] (0.05% composition, in six hours) is “essentially complete kill”. For the same molecule, the “meeting European Pharmacopoeia 5.0 (Ph. Eur. B) standards as sole preservative” value in data set [1] is listed as “provided sufficient preservation to comply; also recorded: effective as a sole preservative”. Also, the “meeting United States Pharmacopoeia 24 standards as sole preservative” value in data set [1] (without any other preservative or preservative aid, isotonic pH 7.5 formulation) was “provided sufficient preservation to comply”. Also, the “Log Order Reductions” value in data set [2] (6 hours) was determined as 5.0 log order; in data set [2] (24 hours), 5.0 log order; in data set [2] (7 days) it was 5.0 log order; in data set [3] (C. albicans, 7 days, 0.05 w/v % in Table 2 formulation, pH 7.5), 4.8 log order; in data set [4] (6 hours, 0.05 w/v % in Table 2 formulation (propylene glycol 1.8, phosphate)), 4.9 log order; in data set [4] (24 hours, 0.05 w/v % in Table 2 formulation), 4.9 log order. Besides, the “Log Order Reductions” value in data set [4] (7 days, 0.05 w/v % in Table 2 formulation) came to 4.9 log order; in data set [5] (6 hours) it was 4.9 log order; in data set [5] (24 hours), 4.9 log order; in data set [5] (7 days), 4.9 log order; in data set [6] it was 0.7 log order. Besides, the “kill of Candida albicans” value in data set [3] (0.05% composition, in 7 days) is on record as “essentially complete kill”. Besides, in data set [7], the “soluble in water up to” value is recorded as “up to 0.124%”.

In the case of `CCCCCCCCCCCCN1CCCC1=O` [N-dodecyl-2-pyrrolidone], the “meeting European Pharmacopoeia 5.0 (Ph. Eur. B) standards as sole preservative” value in data set [1] is given as “requires a second anti-microbial agent; also recorded: insufficient as a sole agent for preservation”. For the same molecule, the “solubility limited in aqueous solutions to” value in data set [7] (aqueous solutions, unless enhanced by another surfactant) was no more than 0.002%. Further, the “soluble in water up to” value in data set [7] is “up to 0.002%”.
